Our source for the IC90 values is PubChem BioAssay AID2842 (Southern Research Institute, 2010).

The test has as its system M. tuberculosis H37Rv growth inhibition. The experiment in a line: Mycobacterium tuberculosis H37Rv growth inhibition, putative kinase inhibitor library, confirmatory dose response (AID 2842).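 Also: bacteria incubated one week before Alamar blue readout.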

≈ marks a conversion by molar mass, not a printed value.

As for `O=C1N/C(=N\N=C\c2ccccc2O)SC1Cc1ccc(F)cc1` (stereo not given), the IC90 was less than 0.2 µg/mL.
Under `O=C(CCOc1ccccc1)Nc1nnc(-c2ccccc2)o1` stands 6.68 µg/mL (≈ 21.6 µM).
On to `CCS(=O)(=O)c1cccc(C(=O)Nc2nnc(-c3ccc(Br)cc3)o2)c1`, for which the 90% effect concentration (IC90) was 7.76 µg/mL (≈ 17.8 µM).
Under `COc1cc(-c2nnc(NC(=O)C(C)(C)C)o2)cc(OC)c1OC` stands 14.5 µg/mL (≈ 43.1 µM); under `CC(=O)N1CCc2c(sc(NC(=O)c3ccccc3Oc3ccccc3)c2C(N)=O)C1`, 18.3 µg/mL (≈ 42 µM).
Under `O=C(Nc1nnc(-c2cc(Cl)ccc2Cl)o1)c1ccc(S(=O)(=O)N2CCCCC2)cc1` stands 11.7 µg/mL (≈ 24.3 µM); under `CC1CN(c2ncnc3c2c(-c2ccccc2)cn3-c2ccc(F)cc2)CC(C)O1` (stereo not given), 42.4 µg/mL (≈ 105 µM).
In the case of `O=C1CN(C(=O)c2cc(Br)ccc2Cl)C(c2ccccc2)c2cc(F)ccc2N1` (stereo not given) it was 26.1 µg/mL (≈ 55 µM).
With `O=C(Nc1nnc(C2=COCCO2)o1)c1cc(Cl)sc1Cl`, the IC90 is 34.1 µg/mL (≈ 98 µM).
On to `CS(=O)(=O)c1ccc(-c2nnc(NC(=O)c3ccc(Cl)s3)o2)cc1`, for which the IC90 is 1.67 µg/mL (≈ 4.35 µM).
In the case of `Cc1ccc(C)c(-c2nnc(NC(=O)c3ccc([N+](=O)[O-])s3)o2)c1` it was 3.09 µg/mL (≈ 8.97 µM); in that of `Cc1ccc(-n2ncc3c(NNC(=O)c4ccc(Cl)cc4Cl)ncnc32)cc1`, 11.9 µg/mL (≈ 28.7 µM).
In the case of `CCCCC(=O)Nc1nnc(-c2ccc(Br)cc2)o1`, the IC90 is 2.3 µg/mL (≈ 7.09 µM).
Under `O=C(Nc1nnc(-c2ccncc2)o1)c1cc(Cl)ccc1Cl` stands 6.58 µg/mL (≈ 19.6 µM); under `Cc1ccc2sc(NNC(=O)C3COc4ccccc4O3)nc2c1C` (stereo not given), 0.88 µg/mL (≈ 2.48 µM); under `CC1CCc2nc(Nc3nc4cc5c(cc4s3)OCO5)sc2C1` (stereo not given), 14.4 µg/mL (≈ 41.8 µM).
Under `COc1cccc(NCCCn2c(C)cn3c4c(=O)[nH]c(=O)n(C)c4nc23)c1` stands 46.2 µg/mL (≈ 121 µM); under `Cc1ccc2nc(N(CCCn3ccnc3)C(=O)c3cccs3)sc2c1`, 1.73 µg/mL (≈ 4.52 µM); under `O=C(Nc1nnc(-c2ccccn2)o1)c1cccc(F)c1`, 3.47 µg/mL (≈ 12.2 µM).
In the case of `CCOC(CNc1ncnc2c1cnn2-c1ccc(C)cc1)OCC` it was 25.6 µg/mL (≈ 74.9 µM); in that of `C=CCn1c(=NC(=O)c2ccc([N+](=O)[O-])s2)sc2cc(S(N)(=O)=O)ccc21`, less than 0.2 µg/mL.
For the molecule `C=CCOC(=O)COc1ccc2c(C)c(-c3ccccc3)c(=O)oc2c1`, the IC90 is 0.85 µg/mL (≈ 2.43 µM).
Under `CCOC(=O)COc1ccc(/C=C2\Oc3cc(OC)ccc3C2=O)cc1` stands 3.32 µg/mL (≈ 9.37 µM); under `N#C/C(=C\c1c(Oc2ccccc2F)nc2ccccn2c1=O)C(N)=O`, 11.4 µg/mL (≈ 32.5 µM); under `Cc1ccc(C)c(-c2nnc(NC(=O)/C=C/c3cccs3)o2)c1`, 54.5 µg/mL (≈ 168 µM).
Under `O=C(c1cccs1)N(CCCn1ccnc1)c1nc2c(Cl)cccc2s1` stands 5.18 µg/mL (≈ 12.9 µM); under `Cc1ccc(NCCn2c(C)cn3c4c(=O)[nH]c(=O)n(C)c4nc23)cc1`, 15.1 µg/mL (≈ 42.9 µM).
Under `COc1cccc2sc(N(CCCn3ccnc3)C(=O)Cc3ccc(F)cc3)nc12` stands 3.48 µg/mL (≈ 8.2 µM); under `O=C(CCSc1ccccc1)Nc1nnc(-c2ccccc2)o1`, 12.9 µg/mL (≈ 39.7 µM); under `Cc1ccc(N=Nc2c(C)[nH][nH]c2=O)cc1`, 10.1 µg/mL (≈ 46.6 µM).
Regarding `Cc1ccc(Cn2c(N3CCN(Cc4cccc5ccccc45)CC3)nc3c2c(=O)[nH]c(=O)n3C)cc1`, the IC90 is 25.4 µg/mL (≈ 51.3 µM).
Consider `Cc1nnc2ccc(-c3cccc(NC(=O)c4cccc(C(F)(F)F)c4)c3)nn12`, for which the IC90 is 22.6 µg/mL (≈ 56.7 µM).
In the case of `COc1ccc(C(=O)Nc2nc3c(s2)CCCC3)c(OC)c1` it was 6.13 µg/mL (≈ 19.3 µM); in that of `O=C(OC1CCCCC1)c1cc2ccccc2oc1=O`, 49 µg/mL (≈ 180 µM); in that of `C=CCNC(=S)NNc1ccc([N+](=O)[O-])cc1`, 10 µg/mL (≈ 39.6 µM).
Under `CC(=O)N1CCc2c(sc(NC(=O)c3cccs3)c2C(N)=O)C1` stands 3.21 µg/mL (≈ 9.19 µM); under `COc1cc2ccccc2cc1C(=O)Nc1nnc(-c2ccc(F)cc2)o1`, 5.59 µg/mL (≈ 15.4 µM).
Under `Cc1cc(C)c(-c2csc(NC(=O)c3ccc4c(c3)OCCO4)n2)c(C)c1` stands 7.63 µg/mL (≈ 20.1 µM); under `CCOc1ccc2nc(SC3CC(=O)N(c4ccc(N5CCCCC5)cc4)C3=O)sc2c1` (stereo not given), 24.8 µg/mL (≈ 53 µM); under `Oc1ccc2ccccc2c1N=Nc1nn[nH]n1`, less than 0.2 µg/mL.
For the molecule `O=C(Cc1ccc(-c2ccccc2)cc1)Nc1nnc2n1CCS2`, the IC90 is 13.5 µg/mL (≈ 40.2 µM).
Under `Fc1cc(F)c2nc(N3CCCC3)sc2c1` stands 18.2 µg/mL (≈ 76 µM); under `COc1cc(OC)cc(C(=O)N(CCCn2ccnc2)c2nc3c(C)cc(C)cc3s2)c1`, 10.1 µg/mL (≈ 22.3 µM); under `Cc1cc(Cl)cc2sc(N(CCCn3ccnc3)C(=O)c3ccco3)nc12`, less than 0.2 µg/mL.
Under `O=C(NNc1nc2c(F)cccc2s1)c1cc2ccccc2oc1=O` stands 8.19 µg/mL (≈ 23 µM); under `Cc1ccc(C2CC(c3c(-c4ccccc4)c4cc(Cl)ccc4[nH]c3=O)=NO2)cc1` (stereo not given), 12.4 µg/mL (≈ 29.9 µM); under `CC(C)(C)c1ccc(C(=O)Nc2nc(-c3ccc4c(c3)OCO4)cs2)cc1`, 6.72 µg/mL (≈ 17.7 µM).
Under `CCOC(=O)c1c(NC(=O)Cc2cccc3ccccc23)sc2c1CC(C)(C)NC2(C)C` stands 2.08 µg/mL (≈ 4.62 µM).
As to `COc1cc(OC)cc(C(=O)Nc2nnc(-c3ccc(Br)cc3)o2)c1`, the IC90 is 52.3 µg/mL (≈ 129 µM).
In the case of `Cc1ccc2c(c1)C(c1ccccc1)N(C(=O)c1ccc(-c3ccccc3)cc1)CC(=O)N2` (stereo not given), the concentration for an effect of 90% (IC90) is 5.05 µg/mL (≈ 11.7 µM).
Under `Cc1cc(Nc2ccc(C)c(Cl)c2)n2ncc(-c3ccccc3)c2n1` stands 3.35 µg/mL (≈ 9.6 µM); under `CCOC(=O)c1sc(Nc2nc3ccc(OC)cc3s2)cc1C`, 83.8 µg/mL (≈ 240 µM).
In the case of `O=C(c1ccco1)N(CCCn1ccnc1)c1nc2ccc(Cl)cc2s1` it was 0.89 µg/mL (≈ 2.3 µM); in that of `COc1cc(C=NNC(=O)Nc2cccc(Cl)c2)ccc1O`, 8.5 µg/mL (≈ 26.6 µM); in that of `Cc1ccc2nc(N(CCCn3ccnc3)C(=O)c3ccco3)sc2c1`, 0.48 µg/mL (≈ 1.31 µM).
For the molecule `Cc1cc(Cl)ccc1N/C=C(\C#N)c1nc2ccccc2[nH]1`, the IC90 is 23.9 µg/mL (≈ 77.4 µM).
For the molecule `COc1ccc2nc(Nc3nc4c(F)cccc4s3)sc2c1`, the IC90 is 23.4 µg/mL (≈ 70.8 µM).
Take `COc1cc2c(=O)c(C(=O)c3ccc(Cl)cc3)cn(Cc3ccccc3F)c2cc1OC`: the IC90 is 45 µg/mL (≈ 99.5 µM).
Under `Cc1cc(NC2CCCCC2)n2ncc(-c3ccccc3)c2n1` stands 10.6 µg/mL (≈ 34.5 µM); under `O=C(NCC(c1cccs1)N1CCc2ccccc2C1)c1ccc2c(c1)OCO2` (stereo not given), 23.9 µg/mL (≈ 58.7 µM); under `CC(C)N1CCc2c(sc(NC(=O)c3ccc([N+](=O)[O-])s3)c2C(N)=O)C1`, 6.33 µg/mL (≈ 16 µM).
As to `Cc1ccc2sc(N(CCCn3ccnc3)C(=O)COc3ccccc3)nc2c1C`, the IC90 is 5.39 µg/mL (≈ 12.8 µM).
In the case of `O=C(Nc1nnc(-c2ccc(Br)cc2)o1)c1ccc([N+](=O)[O-])cc1` it was 50.9 µg/mL (≈ 131 µM); in that of `O=C(Nc1nc(-c2cccs2)c(C(=O)C(F)(F)F)s1)c1cc(-c2ccccc2)nc2ccccc12`, 24.4 µg/mL (≈ 47.9 µM); in that of `O=c1cnnc(N/N=C/c2ccccc2O)[nH]1`, 0.46 µg/mL (≈ 1.99 µM).
Under `O=C(Nc1nnc(-c2cc(Cl)ccc2Cl)o1)c1ccccc1Cl` stands 1.66 µg/mL (≈ 4.5 µM).
In the case of `COc1cc2c3nnc(-c4ccc(C)c(C)c4)c-3cn(Cc3ccc(C)cc3)c2cc1OC`, the IC90 was 1.55 µg/mL (≈ 3.54 µM).
Under `Cc1ccc2nc(NNC(=O)c3cccc(F)c3)sc2c1` stands 7.65 µg/mL (≈ 25.4 µM).
Under `Cc1ccc(C(=O)Nc2sc3c(c2C(N)=O)CCN(C)C3)cc1C` stands 18.8 µg/mL (≈ 54.7 µM); under `COc1cccc(-c2nnc(NC(=O)c3ccc(Cl)cc3)o2)c1`, 33.8 µg/mL (≈ 102 µM); under `O=C(c1ccc(F)cc1)N1N=C(c2c(-c3ccccc3)c3cc(Br)ccc3[nH]c2=O)CC1c1ccco1` (stereo not given), 13.1 µg/mL (≈ 23.5 µM).
In the case of `Cc1cc(NC(=O)CSc2nnc(-c3ccncc3)o2)no1` it was 7.04 µg/mL (≈ 22.2 µM); in that of `CC(=O)Nc1ccc2nc(Nc3nc4ccc(C(C)C)cc4s3)sc2c1`, 2 µg/mL (≈ 5.23 µM); in that of `O=C(Nc1nnc(-c2ccc(Cl)cc2)o1)c1ccc(Br)cc1`, 3.26 µg/mL (≈ 8.61 µM).
In the case of `CCOC(=O)N1CCc2c(sc(NC(=O)c3ccc(F)cc3)c2C(N)=O)C1`, the IC90 was 1.89 µg/mL (≈ 4.83 µM).
Under `Cc1c(C#N)c(N)nc(SCC(=O)c2cc3ccccc3oc2=O)c1C#N` stands 0.42 µg/mL (≈ 1.12 µM).
In the case of `Cc1ccccc1C1C=C(c2cccs2)Nc2nc3ccccc3n21` (stereo not given) it was 13.8 µg/mL (≈ 40 µM); in that of `COc1ccccc1-c1nnc(NC(=O)c2sc3ccccc3c2Cl)o1`, 5.3 µg/mL (≈ 13.7 µM).
Take `CC(=O)N1CCc2c(sc(NC(=O)c3ccc(N(C)C)cc3)c2C(N)=O)C1`: the IC90 was 8.5 µg/mL (≈ 22 µM).
In the case of `Cc1ccccc1C(=O)Nc1nnc(-c2cccnc2)o1` it was 50.1 µg/mL (≈ 179 µM); in that of `COc1ccccc1-c1nnc(NC(=O)c2ccc(-c3ccccc3)cc2)o1`, 1.48 µg/mL (≈ 3.98 µM).
In the case of `O=C(Cc1ccc(F)cc1)N(CCCn1ccnc1)c1nc2c(F)cccc2s1` it was 3.66 µg/mL (≈ 8.87 µM); in that of `COc1ccc(C(=O)Nc2nnc(C3=COCCO3)o2)cc1`, 3.3 µg/mL (≈ 10.9 µM); in that of `CCOc1cccc2sc(N(CCCn3ccnc3)C(=O)Cc3ccc(F)cc3)nc12`, 4.84 µg/mL (≈ 11 µM).
Under `O=C(Cc1cccc2ccccc12)Nc1nnc(-c2cc(Cl)ccc2Cl)o1` stands 94.5 µg/mL (≈ 237 µM); under `COc1cc(Br)cc(/C=N/Nc2nc(=O)[nH]nc2C)c1O`, less than 0.2 µg/mL; under `Cc1ccc(C)c(-c2nnc(NC(=O)c3ccc(Br)s3)o2)c1`, 6.75 µg/mL (≈ 17.8 µM).
Consider `COC(=O)COc1cccc(/C=C2\Oc3cc(OC)ccc3C2=O)c1`, for which the concentration for an effect of 90% (IC90) was 17.3 µg/mL (≈ 50.7 µM).
Consider `Cc1cc(C)cc(Nc2cc(C)nc3c(-c4ccccc4)cnn23)c1`, for which the IC90 is 2.7 µg/mL (≈ 8.22 µM).
`O=C(CSc1ncnc2c1oc1ccccc12)OCc1ccccc1`: the IC90 was 12.1 µg/mL (≈ 34.6 µM).
In the case of `CCOC(=O)c1ccc2nc(Nc3nc4ccc(OC)cc4s3)sc2c1` it was 29 µg/mL (≈ 75.3 µM); in that of `CCOC(=O)N1CCc2c(sc(NC(C)=O)c2C(=O)OC)C1`, 14 µg/mL (≈ 43 µM); in that of `CCCC(=O)Nc1nnc(-c2ccc(Cl)s2)o1`, 27.2 µg/mL (≈ 100 µM).
In the case of `O=C(Nc1nnc(-c2ccc(Cl)s2)o1)c1ccc(Br)s1` it was 11.6 µg/mL (≈ 29.8 µM); in that of `COc1ccccc1-c1cnn2c(Nc3cccc(Cl)c3)cc(C)nc12`, 1.72 µg/mL (≈ 4.71 µM); in that of `COc1ccc(-c2nnc3c4cc(OC)ccc4n(Cc4ccccc4F)cc2-3)cc1`, 9.08 µg/mL (≈ 22 µM).
Under `CCCCOc1cccc(C(=O)Nc2nnc(-c3ccc(C)cc3C)o2)c1` stands 2.63 µg/mL (≈ 7.2 µM); under `O=C(Nc1nnc(-c2ccc3c(c2)CCCC3)o1)c1ccco1`, 0.87 µg/mL (≈ 2.81 µM).
As for `COc1cc2ccccc2cc1C(=O)Nc1nnc(-c2cc(C)ccc2C)o1`, the concentration for an effect of 90% (IC90) is 1.23 µg/mL (≈ 3.29 µM).
Under `Cc1cc(NC2CCCC2)n2ncc(-c3ccccc3)c2n1` stands 9.88 µg/mL (≈ 33.8 µM).
